Values quoted from earlier work in patent publication US20240197637A1, “POLYMERIC MICROPARTICLES FOR THE LOCAL TREATMENT OF CHRONIC INFLAMMATORY DISEASES” (FONDAZIONE ISTITUTO ITALIANO DI TECNOLOGIA, priority 2021, published 2024).

System: DMM murine model of injury-induced OA

## Cc1ccc2c(c1)C1(CCN(CCc3nc(-c4ccccc4)oc3C)CC1)OC(=O)N2 [RS 504393]
Orally and daily administered
  pain perception: decreased
Orally and daily administered, early OA stage
  severity of structural damage: decreased the severity of structural damage
Prolonged and delayed exposure
  cartilage and bone damage: did not translate in a significant reduction
  pain: alleviating pain
